The target of this assay is T1, human 5-HT7 receptor (Homo sapiens, UniProt P34969).
T1 construct: expressed in transfected cells; host or cells: CHO cells
T1 sequence (P34969 whole entry): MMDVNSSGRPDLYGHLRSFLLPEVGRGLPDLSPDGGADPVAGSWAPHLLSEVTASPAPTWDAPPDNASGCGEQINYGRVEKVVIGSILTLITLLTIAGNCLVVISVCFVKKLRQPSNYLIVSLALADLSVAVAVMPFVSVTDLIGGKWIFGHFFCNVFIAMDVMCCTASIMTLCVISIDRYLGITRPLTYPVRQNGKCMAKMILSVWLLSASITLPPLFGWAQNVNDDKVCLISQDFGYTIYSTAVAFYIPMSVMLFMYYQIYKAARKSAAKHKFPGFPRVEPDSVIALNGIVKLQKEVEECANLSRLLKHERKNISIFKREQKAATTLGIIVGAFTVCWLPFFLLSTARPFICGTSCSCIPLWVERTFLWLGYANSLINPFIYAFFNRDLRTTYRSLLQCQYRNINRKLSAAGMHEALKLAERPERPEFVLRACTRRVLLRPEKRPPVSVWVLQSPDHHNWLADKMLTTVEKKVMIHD
Briefly: 5-HT7 Receptor Binding Assay. To be noted: membranes of CHO cells expressing human 5-HT7 receptor; 1 nM 3H-5-carboxamidotryptamine; 25° C., 60 minutes. As to the method: 5-HT7 Receptor Binding Assay
Membranes are prepared for binding using the human 5-HT7 receptor expressed in CHO cells. Cells are collected and ruptured using a dounce homogenizer. The cells are spun at 18000× g for 10 minutes and the pellet is resuspended in assay buffer, frozen in liquid nitrogen and kept at −80° C. until the day of the assay.
A total of 30 ug protein is used per well. The assay is carried out in 96-deep-well plates. The assay buffer is 50 mM HEPES. The membrane preparation is incubated at 25° C. for 60 minutes with 0.1 nM to 1000 nM test compound and 1 nM ^3H-5-carboxamidotryptamine. 10 uM serotonin is used as blocking agent to determine non-specific binding. The reaction is terminated by the addition of 1 ml of ice cold 5OmM HEPES buffer and rapid filtration through a Brandel Cell Harvester using Whatman GF/B filters. The filter pads are counted in an LKB Trilux liquid scintillation counter. IC50 values are determined using non-linear regression by Exel-fit.
What is called IC50 is the point on the concentration scale where inhibition reaches its midpoint. Regarding `C[C@H](Nc1nc(N)nc(NCCc2ccccc2F)n1)c1ccc([N+](=O)[O-])cc1` [Compound 76, N^2-[2-(2-Fluorophenyl)ethyl]-N^4-[(1S)-1-(4-nitrophenyl)ethyl]-1,3,5-triazine-2,4,6-triamine], the IC50 was at most 50 nM.

With `CC(Nc1ccnc(NCCc2cccc(Br)c2)n1)c1ccccc1` (stereo not shown) [Compound 8, N^2-[2-(3-Bromophenyl)ethyl]-N^4-(1-phenylethyl)pyrimidine-2,4-diamine], the IC50 was 51 to 100 nM.

`CC(Nc1ccnc(NCCc2c[nH]c3cc(F)ccc23)n1)c1ccccc1` (stereo not shown) [Compound 31, N^2-[2-(6-Fluoro-1H-indol-3-yl)ethyl]-N^4-(1-phenylethyl)pyrimidine-2,4-diamine] came in with an IC50 of at most 50 nM.

Molecule `C[C@H](Nc1cc(NCCc2ccc(Br)cc2)ncn1)c1ccccc1` [N^4-[2-(4-Bromoophenyl)ethyl]-N^6-[(1S)-1-phenylethyl]pyrimidine-4,6-diamine] yielded an IC50 of 101 to 200 nM.

In the case of `C[C@H](Nc1nc(N)nc(NCCc2cccc(C#N)c2)n1)c1ccccc1` [Compound 55, N^2-[2-(3-Cyanophenyl)ethyl]-N^4-[(1S)-1-phenylethyl]-1,3,5-triazine-2,4,6-triamine], the IC50 was in the range of 51 to 100 nM.

The molecule `COc1cc(CNc2ccnc(NCCOc3ccccc3)n2)cc(OC)c1` [N^4-(3,5-Dimethoxyphenylmethyl)-N^2-(2-phenoxyethyl)pyrimidine-2,4-diamine] showed an IC50 of 101 to 200 nM.

`Brc1cccc(CNc2ccnc(NCCc3ccccc3)n2)c1` [Compound 26, N^4-(3-Bromophenylmethyl)-N^2-(2-phenylethyl)pyrimidine-2,4-diamine] returned an IC50 of at most 50 nM.

For `C[C@H](Nc1nc(N)nc(NC[C@H]2C[C@@H]2c2ccccc2F)n1)c1ccccc1` [(S,S)-trans-N-[2-(2-Fluoro-phenyl)-cyclopropylmethyl]-N′-(1-phenyl-ethyl)-[1,3,5]triazine-2,4,6-triamine], the IC50 is at most 50 nM.

`c1ccc(OCCNc2nccc(NCc3cccnc3)n2)cc1` [Compound 20, N^2-(2-Phenoxyethyl)-N^4-(3-pyridinylmethyl)pyrimidine-2,4-diamine] yielded a 50% inhibitory concentration (IC50) of at most 50 nM.

With `C[C@H](Nc1nc(N)nc(NCCOc2ccccc2)n1)c1cccc2ccccc12` [Compound 42, N^2-[(1S)-1-(1-Napthyl)ethyl]-N^4-[2-(phenoxy)ethyl]-1,3,5-triazine-2,4,6-triamine], the IC50 was 51 to 100 nM.

In turn, `C[C@@H](Nc1ccnc(NCCc2ccccc2)n1)c1ccccc1` [N^2-(2-Phenylethyl)-N^4-[(1R)-1-phenylethyl]pyrimidine-2,4-diamine] came in with an IC50 of 101 to 200 nM.

For the molecule `Cc1ccc(CCNc2nc(C)cc(N[C@@H](C)c3ccccc3)n2)cc1` [N^2-[2-(4-Methylphenyl)ethyl]-6-methyl-N^4-[(1S)-1-phenylethyl]pyrimidine-2,4-diamine], the IC50 was at most 50 nM.

As for `C[C@H](Nc1nc(N)nc(NCCc2cccc(F)c2)n1)c1ccccc1` [Compound 61, N^2-[2-(3-Fluorophenyl)ethyl]-N^4-[(1S)-1-phenylethyl]-1,3,5-triazine-2,4,6-triamine], the IC50 was at most 50 nM.

`C[C@H](Nc1nc(N)nc(NCCc2ccccc2)n1)c1ccccc1` [Compound 60, N^2-[(1S)-1-Phenylethyl]-N^4-(2-phenylethyl)-1,3,5-triazine-2,4,6-triamine] yielded an IC50 of at most 50 nM.

As to `CC[C@H](Nc1nc(N)nc(NCCc2ccccc2)n1)c1ccccc1` [Compound 65, N^2-2-Phenylethyl-N^4-[(1S)-1-phenylpropyl]-1,3,5-triazine-2,4,6-triamine], the IC50 is at most 50 nM.

`CC(Nc1ccnc(NCCc2cccc(C#N)c2)n1)c1ccccc1` (stereo not shown) [Compound 22, N^2-[2-(3-Cyanophenyl)ethyl]-N^4-(1-phenylethyl)pyrimidine-2,4-diamine] gave an IC50 of at most 50 nM.

In the case of `C[C@H](Nc1nc(N)nc(NCCc2cccc(Cl)c2)n1)c1ccccc1` [Compound 62, N^2-[2-(3-Chlorophenyl)ethyl]-N^4-[(1S)-1-phenylethyl]-1,3,5-triazine-2,4,6-triamine], the IC50 is at most 50 nM.

Turning to `C[C@H](Nc1nc(N)nc(NCCc2ccc(F)cc2)n1)c1ccc(F)cc1` [Example 17, N^2-[(1S)-1-(4-Fluorophenyl)ethyl]-N^4-[2-(4-fluorophenyl)ethyl]-1,3,5-triazine-2,4,6-triamine], the IC50 was at most 50 nM.

Molecule `Nc1nc(NCCc2ccccc2)nc(NCc2ccccc2Cl)n1` [N^2-(2-Chlorophenylmethyl)-N^4-(2-phenylethyl)-1,3,5-triazine-2,4,6-triamine] showed an IC50 of at most 50 nM.

As to `c1ccc(OCCNc2nccc(NCc3cccs3)n2)cc1` [Compound 18, N^2-(2-Phenoxyethyl)-N^4-(2-thienylmethyl)pyrimidine-2,4-diamine], the IC50 was at most 50 nM.

Turning to `C[C@H](Nc1nc(N)nc(NCCOc2ccccc2)n1)c1ccccc1` [Compound 41, N^2-[2-(Phenoxy)ethyl]-N^4-[(1S)-1-phenylethyl]-1,3,5-triazine-2,4,6-triamine], the IC50 is 51 to 100 nM.

For the molecule `FC(F)(F)c1cccc(CNc2ccnc(NCCc3ccccc3)n2)c1` [N^2-(2-Phenylethyl)-N^4-[3-(trifluoromethyl)phenylmethyl]pyrimidine-2,4-diamine], the IC50 was at most 50 nM.

The molecule `COc1cccc(CCNc2nccc(NC(C)c3ccccc3)n2)c1` (stereo not shown) [N^2-[2-(3-Methoxyphenyl)ethyl]-N^4-(1-phenylethyl)pyrimidine-2,4-diamine] displayed an IC50 of at most 50 nM.

In turn, `CC(Nc1ccnc(NCCc2ccc(Br)cc2)n1)c1ccccc1` (stereo not shown) [Compound 9, N^2-[2-(4-Bromophenyl)ethyl]-N^4-(1-phenylethyl)pyrimidine-2,4-diamine] gave an IC50 of 51 to 100 nM.

As for `C[C@H](Nc1ccnc(NCCc2ccccc2)n1)c1ccccc1` [N^4-[(1S)-1-Phenylethyl]-N^2-(2-phenylethyl)pyrimidine-2,4-diamine], the IC50 is at most 50 nM.

Regarding `CC(Nc1ccnc(NCCc2ccc(Cl)cc2)n1)c1ccccc1` (stereo not shown) [N^2-[2-(4-Chlorophenyl)ethyl]-N^4-(1-phenylethyl)pyrimidine-2,4-diamine], the IC50 was 51 to 100 nM.

`CC(Nc1ccnc(NCCc2cccc(C(F)(F)F)c2)n1)c1ccccc1` (stereo not shown) [N^4-(1-Phenylethyl)-N^2-{2-[3-(trifluoromethyl)phenyl]ethyl}pyrimidine-2,4-diamine] displayed an IC50 of 51 to 100 nM.

For `CC(Nc1ccnc(NCCSc2ccccc2)n1)c1ccccc1` (stereo not shown) [N^2-(2-Phenthioethyl)-N^4-(1-phenylethyl)pyrimidine-2,4-diamine], the IC50 is 51 to 100 nM.

`CC(Nc1ccnc(NC2Cc3ccccc3C2)n1)c1ccccc1` (stereo not shown) [Compound 10, N^2-(Indan-2-yl)-N4-(1-phenylethyl)pyrimidine-2,4-diamine] yielded a half-inhibitory concentration (IC50) of 51 to 100 nM.

For `Clc1ccc(CNc2ccnc(NCCc3ccccc3)n2)c(Cl)c1` [N^4-(2,4-Dichlorophenylmethyl)-N^2-(2-phenylethyl)pyrimidine-2,4-diamine], the IC50 lay in the range of 51 to 100 nM.

The molecule `Cc1cc(N[C@@H](C)c2ccccc2)nc(NCCc2ccc(Cl)cc2)n1` [N^2-[2-(4-Chlorophenyl)ethyl]-6-methyl-N^4-[(1S)-1-phenylethyl]pyrimidine-2,4-diamine] gave an IC50 of at most 50 nM.

`C[C@H](Nc1nc(N)nc(NCCc2cccc(C(F)(F)F)c2)n1)c1ccccc1` [Compound 53, N^2-[(1S)-1-Phenylethyl]-N^4-{2-[3-(trifluoromethyl)phenyl]ethyl}-1,3,5-triazine-2,4,6-triamine] had a half-maximal inhibitory concentration (IC50) of 51 to 100 nM.

For the molecule `C[C@H](Nc1cc(NCCOc2ccc(F)cc2)ncn1)c1ccccc1` [Example 16, N^4-[2-(4-Fluorophenoxy)ethyl]-N^6-[(1S)-1-phenylethyl]pyrimidine-4,6-diamine], the IC50 was at most 50 nM.

Regarding `Fc1ccc(C(F)(F)F)cc1CNc1ccnc(NCCOc2ccccc2)n1` [N^4-[2-Fluoro-5-(trifluoromethyl)phenylmethyl]-N^2-(2-phenoxyethyl)pyrimidine-2,4-diamine], the IC50 was at most 50 nM.

For `C[C@H](Nc1nc(N)nc(NCCc2ccc(Cl)cc2)n1)c1ccccc1` [Compound 50, N^2-[2-(4-Chlorophenyl)ethyl]-N^4-[(1S)-1-phenylethyl]-1,3,5-triazine-2,4,6-triamine], the IC50 was in the range of 51 to 100 nM.

The molecule `C[C@H](Nc1nc(N)nc(NCCC2=CCCCC2)n1)c1ccccc1` [Compound 57, N^2-[2-(1-Cyclohexenyl)ethyl]-N^4-[(1S)-1-phenylethyl]-1,3,5-triazine-2,4,6-triamine] showed an IC50 of 51 to 100 nM.

For the molecule `C[C@H](Nc1nc(N)nc(NCCOc2ccc(F)c(F)c2)n1)c1ccc([N+](=O)[O-])cc1` [Compound 47, N^2-[2-(3,4-Difluorophenoxy)ethyl]-N^4-[(1S)-1-(4-nitrophenyl)ethyl]-1,3,5-triazine-2,4,6-triamine], the IC50 lay in the range of 51 to 100 nM.

With `C[C@H](Nc1nc(N)nc(NCCc2ccc(Br)cc2)n1)c1ccc([N+](=O)[O-])cc1` [Compound 39, N^2-[2-(4-Bromophenyl)ethyl]-N^4-[(1S)-1-(4-nitrophenyl)ethyl]-1,3,5-triazine-2,4,6-triamine], the half-maximal inhibitory concentration (IC50) was in the range of 101 to 200 nM.

Molecule `CC[C@H](Nc1ccnc(NCCc2ccccc2)n1)c1ccccc1` [N^2-(2-Phenylethyl)-N^4-[(1S)-1-phenylpropyl]pyrimidine-2,4-diamine] came in with an IC50 of at most 50 nM.

For `CC(Nc1ccnc(NCCc2ccc(Cl)c(Cl)c2)n1)c1ccccc1` (stereo not shown) [N^2-[2-(3,4-Dichlorophenyl)ethyl]-N^4-(1-phenylethyl)pyrimidine-2,4-diamine], the IC50 fell in the range of 51 to 100 nM.

These data come from US6630469B2, “5-HT7 receptor antagonists” (Bristol-Myers Squibb Company, priority 2000, dated 2003).
